For test [1], the target named is T1, Proto-oncogene tyrosine-protein kinase Src (Homo sapiens, UniProt P12931). Briefly: Binding affinity to p60 src SH2 domain.
Test [2] addresses T2, Tyrosine-protein phosphatase non-receptor type 11 (Homo sapiens, UniProt Q06124).
T2 sequence (Q06124 whole entry): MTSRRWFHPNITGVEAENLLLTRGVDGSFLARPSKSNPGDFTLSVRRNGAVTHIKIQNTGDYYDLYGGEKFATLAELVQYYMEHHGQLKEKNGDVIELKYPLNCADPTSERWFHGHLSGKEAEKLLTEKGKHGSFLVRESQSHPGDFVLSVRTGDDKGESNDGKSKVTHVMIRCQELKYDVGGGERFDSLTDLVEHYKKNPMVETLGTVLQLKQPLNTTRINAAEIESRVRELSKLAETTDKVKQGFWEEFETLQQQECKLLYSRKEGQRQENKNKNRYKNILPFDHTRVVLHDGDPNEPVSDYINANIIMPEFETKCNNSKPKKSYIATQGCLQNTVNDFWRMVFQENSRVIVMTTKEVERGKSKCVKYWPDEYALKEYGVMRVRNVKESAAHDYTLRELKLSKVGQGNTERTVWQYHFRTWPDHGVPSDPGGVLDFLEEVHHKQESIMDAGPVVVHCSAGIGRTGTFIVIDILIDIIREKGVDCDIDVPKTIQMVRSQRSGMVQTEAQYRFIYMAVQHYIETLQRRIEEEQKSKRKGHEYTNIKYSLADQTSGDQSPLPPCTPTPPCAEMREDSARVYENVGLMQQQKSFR
Nature of the test: Inhibition of Syp(N) SH2 domain block binding to PDGF receptor.

Test [3] addresses Tyrosine-protein kinase ABL1 (Homo sapiens, UniProt P00519). Nature of the test: Inhibition of Abl SH2 domain binding PDGF receptor.
The nature of test [4]: Inhibition of PLC(C) SH2 domain binding to PDGF receptor.
The target of test [5] is T1, Proto-oncogene tyrosine-protein kinase Src. Briefly: Inhibition of src SH2 domain binding to PDGF receptor.
In test [6] the target is Growth factor receptor-bound protein 2 (Homo sapiens) (UniProt P62993). Nature of the test: Inhibition of Grb2 SH2 domain binding to PDGF receptor 100 uM.
Growth factor receptor-bound protein 2 (Homo sapiens), sequence (P62993 whole entry, looked up, the tested form may be a part): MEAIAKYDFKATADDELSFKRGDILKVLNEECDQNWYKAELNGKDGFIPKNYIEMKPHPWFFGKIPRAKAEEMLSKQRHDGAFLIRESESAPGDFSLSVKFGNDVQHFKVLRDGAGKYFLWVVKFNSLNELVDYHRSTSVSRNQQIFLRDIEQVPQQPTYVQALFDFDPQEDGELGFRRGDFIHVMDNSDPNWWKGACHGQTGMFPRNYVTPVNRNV
The target is the same in test [7]. Briefly: Inhibition of Grb2 SH2 domain binding to PDGF receptor.

Molecules are shown by their SMILES. A value given as a limit tells only on which side of the number the result lay.

T1 sequence (P12931 2-536 limits assumed): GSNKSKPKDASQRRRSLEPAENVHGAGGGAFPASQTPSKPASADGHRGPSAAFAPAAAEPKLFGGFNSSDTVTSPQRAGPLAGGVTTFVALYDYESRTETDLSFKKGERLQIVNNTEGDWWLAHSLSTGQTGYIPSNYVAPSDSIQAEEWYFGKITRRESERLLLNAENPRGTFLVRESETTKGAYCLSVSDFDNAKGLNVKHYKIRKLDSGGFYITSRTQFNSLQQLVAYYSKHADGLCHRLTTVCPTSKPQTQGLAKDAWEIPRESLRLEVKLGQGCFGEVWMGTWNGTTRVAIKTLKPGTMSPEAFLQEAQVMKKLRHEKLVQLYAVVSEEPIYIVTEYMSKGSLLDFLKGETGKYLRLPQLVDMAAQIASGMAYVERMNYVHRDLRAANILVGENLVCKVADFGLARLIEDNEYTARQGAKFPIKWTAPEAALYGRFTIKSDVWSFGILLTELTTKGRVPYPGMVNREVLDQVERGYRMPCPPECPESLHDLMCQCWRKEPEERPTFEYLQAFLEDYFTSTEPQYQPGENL
Tyrosine-protein kinase ABL1, sequence (P00519 whole entry, the tested form may be a part): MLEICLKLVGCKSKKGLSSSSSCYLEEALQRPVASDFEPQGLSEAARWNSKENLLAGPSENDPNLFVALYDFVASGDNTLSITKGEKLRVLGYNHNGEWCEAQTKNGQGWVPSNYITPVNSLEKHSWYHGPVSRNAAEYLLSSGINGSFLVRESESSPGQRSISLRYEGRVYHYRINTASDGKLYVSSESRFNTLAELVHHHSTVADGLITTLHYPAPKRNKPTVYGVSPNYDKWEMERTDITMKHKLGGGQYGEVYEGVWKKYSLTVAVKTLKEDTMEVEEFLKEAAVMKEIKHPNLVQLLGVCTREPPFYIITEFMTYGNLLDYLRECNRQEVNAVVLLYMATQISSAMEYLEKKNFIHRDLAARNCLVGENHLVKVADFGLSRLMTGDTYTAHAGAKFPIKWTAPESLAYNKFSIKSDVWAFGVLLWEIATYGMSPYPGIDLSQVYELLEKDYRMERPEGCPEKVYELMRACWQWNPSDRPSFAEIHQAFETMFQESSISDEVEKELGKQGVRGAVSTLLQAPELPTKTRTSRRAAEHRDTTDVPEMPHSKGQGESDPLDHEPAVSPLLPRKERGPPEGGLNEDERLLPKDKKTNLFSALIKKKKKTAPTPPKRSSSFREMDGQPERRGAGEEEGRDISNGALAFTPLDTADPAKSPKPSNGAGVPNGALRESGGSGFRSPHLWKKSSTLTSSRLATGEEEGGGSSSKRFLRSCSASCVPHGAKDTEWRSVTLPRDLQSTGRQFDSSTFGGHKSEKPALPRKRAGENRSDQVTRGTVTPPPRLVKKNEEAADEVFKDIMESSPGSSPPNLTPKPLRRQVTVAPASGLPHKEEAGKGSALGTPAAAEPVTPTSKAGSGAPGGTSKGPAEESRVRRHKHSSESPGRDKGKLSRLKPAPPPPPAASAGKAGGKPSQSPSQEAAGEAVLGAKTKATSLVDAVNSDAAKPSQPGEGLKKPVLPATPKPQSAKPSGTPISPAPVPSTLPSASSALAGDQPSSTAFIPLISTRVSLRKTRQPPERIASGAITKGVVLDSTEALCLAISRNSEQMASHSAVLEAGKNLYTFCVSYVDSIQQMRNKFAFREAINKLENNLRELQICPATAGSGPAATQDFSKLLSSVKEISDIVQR

The IC50 is the concentration at which inhibition is half-maximal. In the case of `CC[C@H](C)[C@H](NC(=O)[C@H](CCC(=O)O)NC(=O)[C@H](CCC(=O)O)NC(=O)C(Cc1ccc(OP(=O)(O)O)cc1)c1cccc2ccccc12)C(=O)N[C@@H](CCC(=O)O)C(=O)O` (stereo in doubt; form 2), the half-maximal inhibitory concentration (IC50) in test [1] turned out to be 2.6 µM.

`CC[C@H](C)[C@H](NC(=O)C(CCC(=O)O)NC(=O)C(CCC(=O)O)NC(=O)C(Cc1ccc(OP(=O)(O)O)cc1)c1cccc(O)c1)C(=O)N[C@@H](CCC(=O)O)C(=O)O` (stereo in doubt) gave an IC50 in test [1] of 3.3 µM.

`CC[C@H](C)[C@H](NC(=O)[C@H](CCC(=O)O)NC(=O)[C@H](CCC(=O)O)NC(=O)C(Cc1ccc(OP(=O)(O)O)cc1)c1ccc2ccccc2c1)C(=O)N[C@@H](CCC(=O)O)C(=O)O` (stereo in doubt): the IC50 in test [1] is 2.8 µM.

Regarding `CC[C@H](C)[C@H](NC(=O)[C@H](CCC(=O)O)NC(=O)[C@H](CCC(=O)O)NC(=O)C(Cc1ccc(OP(=O)(O)O)cc1)c1cccc2ccccc12)C(=O)N[C@@H](CCC(=O)O)C(=O)O` (stereo in doubt; form 1), the concentration for half-maximal inhibition (IC50) in test [1] was 7.3 µM.

For `Cc1cc(OP(=O)(O)O)cc(C)c1CCC(=O)NC(CCC(=O)O)C(=O)N[C@@H](Cc1c[nH]c2ccccc12)C(N)=O` (some centres not stated), the IC50 in test [1] turned out to be 30 µM.

Turning to `CC[C@H](C)[C@H](NC(=O)[C@H](CCC(=O)O)NC(=O)[C@H](CCC(=O)O)NC(=O)CCc1c(C)cc(OP(=O)(O)O)cc1C)C(=O)N[C@@H](CCC(=O)O)C(=O)O`, in test [1], the IC50 is 4.5 µM.

Consider `CC[C@H](C)[C@H](NC(=O)[C@H](CCC(=O)O)NC(=O)[C@H](CCC(=O)O)NC(=O)/C=C/c1ccc(OP(=O)(O)O)cc1)C(=O)N[C@@H](CCC(=O)O)C(=O)O`, for which the IC50 in test [1] turned out to be 5.5 µM.

Turning to `NC(=O)[C@H](Cc1c[nH]c2ccccc12)NC(=O)C(CCC(=O)O)NC(=O)CCc1ccc(OP(=O)(O)O)cc1` (some centres not stated), the IC50 in test [1] amounted to 21.3 µM.

In turn, `NC(=O)[C@H](Cc1c[nH]c2ccccc12)NC(=O)C(CCC(=O)O)NC(=O)C(Cc1ccc(OP(=O)(O)O)cc1)c1ccccc1` (some centres not stated) gave an IC50 in test [1] of 28 µM.

With `CC[C@H](C)[C@H](NC(=O)[C@H](CCC(=O)O)NC(=O)[C@H](CCC(=O)O)NC(=O)[C@H](C)Cc1ccc(OP(=O)(O)O)cc1)C(=O)N[C@@H](CCC(=O)O)C(=O)O`, the IC50 in test [1] was determined as 20 µM.

Molecule `CC[C@H](C)[C@H](NC(=O)[C@H](CCC(=O)O)NC(=O)[C@H](CCC(=O)O)NC(=O)CCc1ccc(OP(=O)(O)O)cc1)C(=O)N[C@@H](CCC(=O)O)C(=O)O` displayed an IC50 in test [1] of 3.4 µM.

The molecule `NC(=O)[C@H](Cc1c[nH]c2ccccc12)NC(=O)C(CCC(=O)O)NC(=O)C(Cc1ccc(OP(=O)(O)O)cc1)c1cccc2ccccc12` (some centres not stated) showed a 50% inhibitory concentration (IC50) in test [1] of 30 µM.

With `NC(=O)[C@H](Cc1c[nH]c2ccccc12)NC(=O)C(CCC(=O)O)NC(=O)C(Cc1ccc(OP(=O)(O)O)cc1)c1ccc2ccccc2c1` (some centres not stated), the half-inhibitory concentration (IC50) in test [1] amounted to 40 µM.

In test [1], `NC(=O)[C@H](Cc1c[nH]c2ccccc12)NC(=O)C(CCC(=O)O)NC(=O)/C=C/c1ccc(OP(=O)(O)O)cc1` (some centres not stated) had a half-maximal inhibitory concentration (IC50) of 30 µM.

`CC[C@H](C)[C@H](NC(=O)[C@H](CCC(=O)O)NC(=O)[C@H](CCC(=O)O)NC(=O)C(Cc1ccc(OP(=O)(O)O)cc1)c1ccccc1)C(=O)N[C@@H](CCC(=O)O)C(=O)O` (single isomer, unassigned; isomer 2) gave an IC50 in test [1] of 9.3 µM.

For `C[C@H](Cc1ccc(OP(=O)(O)O)cc1)C(=O)NC(CCC(=O)O)C(=O)N[C@@H](Cc1c[nH]c2ccccc12)C(N)=O` (some centres not stated), in test [1], the half-maximal inhibitory concentration (IC50) came out at 13.4 µM.

Take `CC[C@H](C)[C@H](NC(=O)[C@H](CCC(=O)O)NC(=O)[C@H](CCC(=O)O)NC(=O)C(Cc1ccc(OP(=O)(O)O)cc1)c1ccccc1)C(=O)N[C@@H](CCC(=O)O)C(=O)O` (stereo in doubt) [listing 1 of 2 here]: the IC50 in test [2] was over 100 µM; in test [3], over 100 µM; in test [4] it was over 100 µM; in test [1], 1.9 µM; in test [5], 7.35 µM.

With `CC(=O)N[C@@H](Cc1ccc(OP(=O)(O)O)cc1)C(=O)NC(CCC(=O)O)C(=O)N[C@@H](Cc1c[nH]c2ccccc12)C(N)=O` (some centres not stated), the half-inhibitory concentration (IC50) in test [1] was found to be 4 µM.

In test [1], `CC[C@H](C)[C@H](NC(=O)[C@H](CCC(=O)O)NC(=O)[C@H](CCC(=O)O)NC(=O)C(Cc1ccc(OP(=O)(O)O)cc1)c1ccc2ccccc2c1)C(=O)N[C@@H](CCC(=O)O)C(=O)O` (single isomer, unassigned; isomer 2) displayed a half-maximal inhibitory concentration (IC50) of 4.5 µM.

In general, inhibition refers to how much of the control response was suppressed. A lower inhibition goes with a response near the control. On to `CC[C@H](C)[C@H](NC(=O)[C@H](CCC(=O)O)NC(=O)[C@H](CCC(=O)O)NC(=O)[C@@H](Cc1ccc(OP(=O)(O)O)cc1)NC(C)=O)C(=O)N[C@@H](CCC(=O)O)C(=O)O`, for which the half-maximal inhibitory concentration (IC50) in test [2] was over 100 µM; in test [3], 15.3 µM; in test [4], over 100 µM. In addition, the inhibition in test [6] was 45.2%.

For the molecule `CC[C@H](C)[C@H](NC(=O)[C@H](CCC(=O)O)NC(=O)[C@H](CCC(=O)O)NC(=O)/C(=C/c1ccc(OP(=O)(O)O)cc1)C(=O)O)C(=O)N[C@@H](CCC(=O)O)C(=O)O`, the IC50 in test [1] was found to be 5 µM.

Consider `CC[C@H](C)[C@H](NC(=O)[C@H](CCC(=O)O)NC(=O)[C@H](CCC(=O)O)NC(=O)[C@@H](CC(=O)O)Cc1ccc(OP(=O)(O)O)cc1)C(=O)N[C@@H](CCC(=O)O)C(=O)O`, for which the concentration for half-maximal inhibition (IC50) in test [1] was determined as 0.35 µM.

Take `CC[C@H](C)[C@H](NC(=O)C(CCC(=O)O)NC(=O)C(CCC(=O)O)NC(=O)C(Cc1ccc(OP(=O)(O)O)cc1)c1cccc(O)c1)C(=O)N[C@@H](CCC(=O)O)C(=O)O` (single isomer, unassigned; isomer 1): the 50% inhibitory concentration (IC50) in test [1] came to 2.1 µM.

`CC[C@H](C)[C@H](NC(=O)[C@H](CCC(=O)O)NC(=O)[C@H](CCC(=O)O)NC(=O)C(Cc1ccc(OP(=O)(O)O)cc1)c1ccccc1O)C(=O)N[C@@H](CCC(=O)O)C(=O)O` (some centres not stated) returned an IC50 in test [1] of 1.4 µM.

For the molecule `CC[C@H](C)[C@H](NC(=O)[C@H](CCC(=O)O)NC(=O)[C@H](CCC(=O)O)NC(=O)C(Cc1ccc(OP(=O)(O)O)cc1)c1ccccc1)C(=O)N[C@@H](CCC(=O)O)C(=O)O` (stereo in doubt) [listing 2 of 2 here], the IC50 in test [7] was over 100 µM.
